Test results: patent publication US10842785B2, “PIM kinase inhibitors in combination with RNA splicing modulators/inhibitors for treatment of cancers” (UNIVERSITY OF MARYLAND, BALTIMORE COUNTY, priority 2016, dated 2020)

How the values were obtained:
Format in all cases: cell-based
MCL1 splice variants [1] = assay: Taqman qRT-PCR for MCL1 splice variants in OCI-M1 cells; settings: 1 μM, 6 hrs
Excerpt: (§1) Control=DMSO treated. […] Arrow indicate bands that change after AZD1208 treatment.
(§2) A few targets from the microarray data were chosen, that being, ones that were affected by PIM kinase inhibition. The procedure was manual curation of data, followed by reference seq analysis of splice variants to determine avalibilty of sequence information. Initially, changes in splice variants of a known apoptotic regulator, MCL1 were validated. The smaller isoform of MCL1 is pro-apototic, while the longer isoform has anti-apototic functions.

MOLM16 cells [2] = assay: Microarray (Affymetrix HTA 2.0) profiling of alternative splicing changes in MOLM16 cells; settings: MOLM16, 1 μM, 6 hours
Protocol: Due to the large number of splicing factors as PIM substrates, a more globally spread regulation of splicing by PIM kinases was envisioned. As such, a microarray approach was chosen to profile the entire transcriptome for changes in alternative splicing, due to inhibition of PIM kinase activity. MOLM16 cells were treated with DMSO/AZD1208 (1 μM) (pan-PIM inhibitor) for 6 hours. This experiment was performed in triplicates and RNA was run on a bioanalyzer to confirm sample intergrity, as outline in FIG. 3. A similar procedure was used for analysis of both MOLM16 and EOL1 cells. After 1 μM AZD1208 treatment for 6 hours, cells were harvested, and total RNA was isolated. The RNA quality was confirmed using a bio-analyzer. High quality RNA samples were further processed and hybridized to Affymetrix HTA 2.0 microarrays. The results obtained were processed using Affymetrix expression console and transcriptome analysis console (TAC) software. […] Similar experiment was also performed for EOL1 cells. […] Each point represents a unique probe selection region and the splicing index values for MOLM16 (X axis) and EOL1 cells (Y axis) are shown. All the points in +X+Y and −X−Y quadrants are splicing changes consistent with directionality of the change. […] Microsoft Excel functions were used to identify the overlap between these lists of splicing changes. […]

EOL1 cells [3] = assay: Microarray (Affymetrix HTA 2.0) profiling of alternative splicing changes in EOL1 cells
Protocol: Due to the large number of splicing factors as PIM substrates, a more globally spread regulation of splicing by PIM kinases was envisioned. As such, a microarray approach was chosen to profile the entire transcriptome for changes in alternative splicing, due to inhibition of PIM kinase activity. MOLM16 cells were treated with DMSO/AZD1208 (1 μM) (pan-PIM inhibitor) for 6 hours. This experiment was performed in triplicates and RNA was run on a bioanalyzer to confirm sample intergrity, as outline in FIG. 3. A similar procedure was used for analysis of both MOLM16 and EOL1 cells. After 1 μM AZD1208 treatment for 6 hours, cells were harvested, and total RNA was isolated. The RNA quality was confirmed using a bio-analyzer. High quality RNA samples were further processed and hybridized to Affymetrix HTA 2.0 microarrays. The results obtained were processed using Affymetrix expression console and transcriptome analysis console (TAC) software. […] Similar experiment was also performed for EOL1 cells. […] Each point represents a unique probe selection region and the splicing index values for MOLM16 (X axis) and EOL1 cells (Y axis) are shown. All the points in +X+Y and −X−Y quadrants are splicing changes consistent with directionality of the change. […] Microsoft Excel functions were used to identify the overlap between these lists of splicing changes. […] When the directionality of these changes was considered, it was noted that most of these changes were also consistantly in the same direction (all but 39 out of 2599).

MOLM16 cells [4] = assay: MTT assay (number of live cells), MOLM16 cells, single inhibitors and combination, Compusyn CI; settings: 48 hours
Protocol: (§3) General experimental procedure: 10,000 (MOLM16) or 20,000 (EOL1) cells were seeded per well in 96-well plates. After culturing overnight, AZD1208 and/or Pladienolide B/SRPIN340 were added to wells in quadruplicates at 5 different concentrations. Different ratios between AZD1208 and Pladienolide B were tried in MOLM16 and EOL1 cells. At 48 hours the MTT metabolism indicative of number of live cells was measured by MTT assay (Promega, Cat: G4000). The resulting values were used to evaluate the Fa (fraction affected) values, which were plugged into the Compusyn software to calculate the combination indices (CI values) at ED50, ED75, ED90 and ED95 (ED—Effective dose of combination).
These values of drug dose and effect (fraction of cells affected by the treatment—FA values) were input into the Compusyn software to estimate the interaction between the two drugs.

[5] = test system: SR protein phosphorylation; assay: Western blot using phospho-SR protein antibody; settings: MOLM16 and EOL1 cells, versus DMSO treated controls
Protocol: MOLM16 and EOL1 cells were treated with AZD1208 or SRPIN340 for indicated concentration and time. Cells lysates from treated cells were used for western blot analysis.
Phosphorylation of splicing factors is known to play a role in regulation of splicing. Phosphorylation of splicing factors called serine arginine rich proteins (SR proteins) is known to regulate their function and localization. Serine arginine rich protein kinases (SRPK1 and SRPK2) phosphorylate these proteins and inhibition of SRPK activity using the small molecule modulator SRPIN340 leads to reduction in phosphorylation. The level of SR protein phosphorylation can be visualized using phospho-SR protein antibody. It was investigated to determine if PIM kinases regulate SRPK activity to indirectly lead to changes in splicing. […] Thus, it was concluded that the SRPK activity was not affected by PIM kinase inhibition.

MCL1 splice variants [6] = assay: Taqman qRT-PCR for MCL1 splice variants in MOLM16 cells; settings: MOLM16, 1 μM, 6 hrs
Excerpt: as §1, §2

EOL1 cells [7] = assay: MTT assay (number of live cells), EOL1 cells, single inhibitors and combination, Compusyn CI; settings: 48 hours
Protocol: as §3
To further confirm the finding in MOLM16 cells, it was tested whether the combination of AZD1208 and Pladienolide B is synergistic in another AML cell line—EOL1. Different ratios between AZD1208 and Pladienolide B were tested to identify the ideal ratio that provides maximum synergy.

CHAC1, NFYA and Cog5 = assay: RT-PCR for splice variants of CHAC1, NFYA and Cog5 in MOLM16 cells; settings: MOLM16, 1 μM, 6 hrs
Excerpt: as §1, §2

## N[C@@H]1CCCN(c2c(/C=C3/SC(=O)NC3=O)cccc2-c2ccccc2)C1 [AZD1208, (5E)-5-[[2-[(3R)-3-aminopiperidin-1-yl]-3-phenylphenyl]methylidene]-1,3-thiazolidine-2,4-dione]
MCL1 splice variants [1]
  level of both MCL1 splice variants: did not show any change
MOLM16 cells [2]
  gene products with changes in splicing indices: > 5000
  splicing events with changes in splicing indices: > 10,000
EOL1 cells [3]; EOL1, 1 μM, 6 hrs.
  changes in splicing after PIM kinase inhibition: widespread changes were observed in splicing
EOL1 cells [3]; out of 2599 changes shared by MOLM16 and EOL1, 1 μM, 6 hours
  overlapping splicing changes not in the same direction: 39
EOL1 cells [3]; overlap between MOLM16 and EOL1 lists, 1 μM, 6 hours
  splicing changes observed in similar probe selection regions: 2599
MOLM16 cells [4]; MOLM16, SRPIN340 testing Trial 1, 0.03 μM
  Effect (fraction of cells affected, FA): 0.396
MOLM16 cells [4]; MOLM16, SRPIN340 testing Trial 1, 0.06 μM
  Effect (fraction of cells affected, FA): 0.521
MOLM16 cells [4]; MOLM16, SRPIN340 testing Trial 1, 0.12 μM
  Effect (fraction of cells affected, FA): 0.628
MOLM16 cells [4]; MOLM16, Trial 1, 0.024 μM
  Effect (fraction of cells affected, FA): 0.415
MOLM16 cells [4]; MOLM16, Trial 1, 0.048 μM
  Effect (fraction of cells affected, FA): 0.471
MOLM16 cells [4]; MOLM16, Trial 1, 0.072 μM
  Effect (fraction of cells affected, FA): 0.564
MOLM16 cells [4]; MOLM16, Trial 1, 0.096 μM
  Effect (fraction of cells affected, FA): 0.594
MOLM16 cells [4]; MOLM16, Trial 1, 0.12 μM
  Effect (fraction of cells affected, FA): 0.614
MOLM16 cells [4]; MOLM16, Trial 2, 0.024 μM
  Effect (fraction of cells affected, FA): 0.337
MOLM16 cells [4]; MOLM16, Trial 2, 0.048 μM
  Effect (fraction of cells affected, FA): 0.478
MOLM16 cells [4]; MOLM16, Trial 2, 0.072 μM
  Effect (fraction of cells affected, FA): 0.534
MOLM16 cells [4]; MOLM16, Trial 2, 0.096 μM
  Effect (fraction of cells affected, FA): 0.566
MOLM16 cells [4]; MOLM16, Trial 2, 0.12 μM
  Effect (fraction of cells affected, FA): 0.622
MOLM16 cells [4]; MOLM16, Trial 3, 0.024 μM
  Effect (fraction of cells affected, FA): 0.344
MOLM16 cells [4]; MOLM16, Trial 3, 0.048 μM
  Effect (fraction of cells affected, FA): 0.455
MOLM16 cells [4]; MOLM16, Trial 3, 0.072 μM
  Effect (fraction of cells affected, FA): 0.524
MOLM16 cells [4]; MOLM16, Trial 3, 0.096 μM
  Effect (fraction of cells affected, FA): 0.554
MOLM16 cells [4]; MOLM16, Trial 3, 0.12 μM
  Effect (fraction of cells affected, FA): 0.606
[5]
  SR protein phosphorylation: does not change SR protein phosphorylation
MCL1 splice variants [6]
  level of shorter isoform of MCL1: specifically and significantly reduces
EOL1 cells [7]; EOL1, Trial 1, 0.024 μM
  Effect (fraction of cells affected, FA): 0.395
EOL1 cells [7]; EOL1, Trial 1, 0.048 μM
  Effect (fraction of cells affected, FA): 0.529
EOL1 cells [7]; EOL1, Trial 1, 0.072 μM
  Effect (fraction of cells affected, FA): 0.675
EOL1 cells [7]; EOL1, Trial 1, 0.096 μM
  Effect (fraction of cells affected, FA): 0.684
EOL1 cells [7]; EOL1, Trial 1, 0.12 μM
  Effect (fraction of cells affected, FA): 0.680
EOL1 cells [7]; EOL1, Trial 2, 0.024 μM
  Effect (fraction of cells affected, FA): 0.432
EOL1 cells [7]; EOL1, Trial 2, 0.048 μM
  Effect (fraction of cells affected, FA): 0.587
EOL1 cells [7]; EOL1, Trial 2, 0.072 μM
  Effect (fraction of cells affected, FA): 0.650
EOL1 cells [7]; EOL1, Trial 2, 0.096 μM
  Effect (fraction of cells affected, FA): 0.683
EOL1 cells [7]; EOL1, Trial 2, 0.12 μM
  Effect (fraction of cells affected, FA): 0.698
EOL1 cells [7]; EOL1, Trial 3, 0.024 μM
  Effect (fraction of cells affected, FA): 0.373
EOL1 cells [7]; EOL1, Trial 3, 0.048 μM
  Effect (fraction of cells affected, FA): 0.523
EOL1 cells [7]; EOL1, Trial 3, 0.072 μM
  Effect (fraction of cells affected, FA): 0.600
EOL1 cells [7]; EOL1, Trial 3, 0.096 μM
  Effect (fraction of cells affected, FA): 0.633
EOL1 cells [7]; EOL1, Trial 3, 0.12 μM
  Effect (fraction of cells affected, FA): 0.642
CHAC1, NFYA and Cog5
  changes in splice variants of CHAC1, NFYA and Cog5: in agreement with the microarray data
